Measured values reported in patent US12343319B2, “Compositions and methods for treatment of diseases and disorders” (Atai Therapeutics Inc., priority 2023, dated 2025).
pEC50: −log10 of the molar value. “Also recorded” adds a separate entry of the source.

Tests used:
[1] = molecular target: T1, 5-HT2C (Homo sapiens, UniProt P28335); assay: Ca++ (calcium mobilization), 5-HT2C; type: cell-based; details: for Emax: Ca++, human 5-HT2C, read-out: Emax (%5-HT)
T1 construct: expressed in transfected cells
T1 sequence (P28335 33-458): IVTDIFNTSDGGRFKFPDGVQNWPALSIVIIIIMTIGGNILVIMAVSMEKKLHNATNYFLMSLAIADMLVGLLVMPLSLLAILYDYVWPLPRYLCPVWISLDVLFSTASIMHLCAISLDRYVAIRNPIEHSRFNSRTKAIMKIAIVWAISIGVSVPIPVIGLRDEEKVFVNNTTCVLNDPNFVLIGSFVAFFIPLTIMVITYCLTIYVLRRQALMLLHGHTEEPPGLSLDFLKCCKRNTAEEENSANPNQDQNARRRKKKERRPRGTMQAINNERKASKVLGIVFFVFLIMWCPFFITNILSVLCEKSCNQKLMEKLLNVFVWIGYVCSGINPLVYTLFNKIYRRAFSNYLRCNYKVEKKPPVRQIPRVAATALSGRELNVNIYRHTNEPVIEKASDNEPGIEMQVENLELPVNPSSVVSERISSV
Procedure: (§1) In vitro pharmacology studies were performed to evaluate the effects of compound 2-1 on functional activity of several 5-HT receptors using recombinant target overexpression cell culture systems. The effect of compound 2-1 on G protein-dependent signaling was investigated at 5-HT2A, 5-HT2B, and 5-HT2C receptors with calcium mobilization and IPOne assays; and at 5-HT1A, 5-HT1B, 5-HT1F, 5-HT5A, and 5-HT7D receptors with a cAMP assay. G protein-independent signaling was investigated at the 5-HT2A receptor with a β-Arrestin assay.
(§2) In vitro pharmacology studies were performed to evaluate the effects of compound 2-2 on functional activity at several 5-HT receptors using recombinant target overexpression cell culture systems. The effect of compound 2-2 on G protein-dependent signaling was investigated at 5-HT2A, 5-HT2B, and 5-HT2C receptors with calcium mobilization and IPOne assays; and at 5-HT1A, 5-HT1B, 5-HT1F, 5-HT5A, and 5-HT7D receptors with a cAMP assay. G protein-independent signaling was investigated at the 5-HT2A receptor with a β-arrestin assay. […] In Table 4, 5-HT receptor selectivity was calculated using ΔΔlog(Emax/EC50). Assay reference α-Me-5-HT or 5-HT was used for normalization at each receptor (5-HT2A/5-HT2B selectivity=1; 5-HT2A/5-HT2C selectivity=1). ND in Table 4 indicates, not determined, plateau was not reached within the concentration range tested to determine Emax.

[2] = molecular target: T2, 5-HT1B (Homo sapiens, UniProt P28222); assay: cAMP, 5-HT1B; type: cell-based
T2 construct: expressed in transfected cells
Procedure: as §1, §2

[3] = molecular target: 5-HT2A (mouse) (Mus musculus, UniProt P35363); assay: β-Arrestin, mouse 5-HT2A; type: cell-based; details: for Emax: β-Arrestin, mouse 5-HT2A, read-out: Emax (%5-HT)
Excerpt: Overall, in vitro activity at rodent 5-HT2A and 5-HT2B receptors is consistent with the human receptor results, with compound 2-1 acting as a potent and selective 5-HT2A agonist.
Overall, in vitro activity at rodent 5-HT2A and […] receptors is consistent with the human receptor results, with compound 2-2 acting as a potent and selective 5-HT2A agonist. In Table 5, ND indicates not determined.

[4] = molecular target: T3, 5-HT2A (Homo sapiens, UniProt P28223); assay: Ca++ (calcium mobilization), 5-HT2A; type: cell-based; design: expressed in transfected cells; details: for Emax: read-out: Emax (%5-HT)
Procedure: as §1, §2

[5] = molecular target: T3, 5-HT2A; assay: IPOne, 5-HT2A; type: cell-based; design: expressed in transfected cells; details: for Emax: read-out: Emax (% α-Me-5-HT)
Procedure: as §1, §2

[6] = test system: Male WKY rats; assay: Low-dose sleep, locomotor, body temperature and qEEG study in WKY rats; type: in vivo, rat; details: 1, 3 and 10 mg/kg IP
Procedure: The aim of the current study was to identify a minimal effective dose of compound by testing a series of lower doses (1, 3 and 10 mg/kg). The study was carried out similarly to Examples 7 and 9 with differences noted below. Male WKY rats (n=8, 255-296 g at the start of dosing) were housed in groups of 2-3 animals per cage with standard housing conditions.

[7] = molecular target: T4, 5-HT2A receptors in the mouse frontal cortex (Mus musculus, UniProt P35363); assay: Ex vivo 5-HT2A receptor occupancy ([3H]cimbi-36) in mouse frontal cortex
T4 construct: Left frontal cortices from each animal were homogenized individually; from tissue

[8] = test system: Male Sprague-Dawley rats; assay: 5-HT2A/2C/1A-mediated behaviors, locomotor activity and body temperature in rats; type: in vivo, rat
Procedure: Forty (40) male Sprague-Dawley rats were used as test subjects in this study. Animals were dosed with vehicle (IP), one of 3 doses of compound 2-2 (3 mg/kg, 10 mg/kg, 30 mg/kg IP) or psilocybin (1 mg/kg SC) and, following the appropriate pre-treatment time, were placed in locomotor activity boxes and continuously monitored for a 1 hr period with data collected into 10-minute time bins. Animals were visually assed for overt behavioral signs, including biomarkers for 5-HT2A receptor target engagement (i.e. wet dog shakes, back muscle contractions and stereotypic behaviors), 5-HT2C receptor activation (yawning, penile grooming), and 5-HT1A behaviors (forepaw treading, hindlimb abduction). Additional behavioral and somatic signs characteristic of 5-HT syndrome (i.e. tremor, salivation, flat body posture) also were measured. Core body temperature change was determined at 0 hr (pre-dose), 1 hr, and 2 hr. Simultaneously, the spontaneous locomotor activity of the rats was measured using automated Med Associates activity test chambers. Activity data collected included total distance travelled, rearing counts, and ambulatory episodes. LMA was measured for a total of 2 hours (i.e. the first hour to include visual assessments of behavioral signs, and the second hour the animals will not be assessed for behavioral signs) with data collected into 10 minute time bins. The tracking arena measured 17″ W×17″ L×12″ H, sensor bars were secured 1″ above the floor to track distance travelled, and a second set of sensor bars were placed ˜5″ above the floor to measure vertical movement and rearing activity. The parameters set on the tracking software were as follows: resolution −50 ms, box size −4 beams, resting delay −500 ms, and ambulatory trigger −3.
Table 14 outlines receptor activity and related behavioral and/or physiological measures.

[9] = 5-HT1A agonism, 3, 10, 30 mg/kg IP
[10] = 5-HT2C agonism, 3, 10, 30 mg/kg IP
[11] = excess 5-HT agonism (5-HT syndrome), 3, 10, 30 mg/kg IP

Sequence of 5-HT2A (mouse) (P35363 whole entry): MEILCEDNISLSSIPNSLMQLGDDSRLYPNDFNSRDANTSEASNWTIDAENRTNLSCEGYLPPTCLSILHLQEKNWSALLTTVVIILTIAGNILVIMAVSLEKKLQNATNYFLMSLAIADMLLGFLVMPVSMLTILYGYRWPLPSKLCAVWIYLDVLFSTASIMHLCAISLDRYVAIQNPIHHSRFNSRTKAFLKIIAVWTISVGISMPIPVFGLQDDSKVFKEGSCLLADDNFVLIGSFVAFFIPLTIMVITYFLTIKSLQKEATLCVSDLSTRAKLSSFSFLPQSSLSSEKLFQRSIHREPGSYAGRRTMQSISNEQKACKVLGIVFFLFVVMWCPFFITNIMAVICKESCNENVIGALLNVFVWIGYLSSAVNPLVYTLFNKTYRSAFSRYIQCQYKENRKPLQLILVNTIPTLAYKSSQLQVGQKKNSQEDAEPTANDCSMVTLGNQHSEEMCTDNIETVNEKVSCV
T4 sequence (P35363 whole entry): as above
T3 sequence (P28223 whole entry): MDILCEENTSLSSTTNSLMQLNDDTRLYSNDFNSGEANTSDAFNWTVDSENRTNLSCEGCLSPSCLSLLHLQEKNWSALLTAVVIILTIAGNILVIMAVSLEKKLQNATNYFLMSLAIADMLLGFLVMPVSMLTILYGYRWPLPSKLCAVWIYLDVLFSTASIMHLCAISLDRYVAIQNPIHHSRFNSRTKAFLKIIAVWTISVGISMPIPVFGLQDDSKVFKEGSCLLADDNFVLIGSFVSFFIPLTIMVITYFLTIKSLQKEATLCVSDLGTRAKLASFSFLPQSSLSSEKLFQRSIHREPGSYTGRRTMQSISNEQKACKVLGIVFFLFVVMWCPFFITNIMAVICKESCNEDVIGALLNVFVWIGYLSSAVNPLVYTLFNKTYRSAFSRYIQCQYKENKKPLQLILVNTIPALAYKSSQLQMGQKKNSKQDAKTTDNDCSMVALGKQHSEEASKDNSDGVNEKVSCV
T2 sequence (P28222 whole entry): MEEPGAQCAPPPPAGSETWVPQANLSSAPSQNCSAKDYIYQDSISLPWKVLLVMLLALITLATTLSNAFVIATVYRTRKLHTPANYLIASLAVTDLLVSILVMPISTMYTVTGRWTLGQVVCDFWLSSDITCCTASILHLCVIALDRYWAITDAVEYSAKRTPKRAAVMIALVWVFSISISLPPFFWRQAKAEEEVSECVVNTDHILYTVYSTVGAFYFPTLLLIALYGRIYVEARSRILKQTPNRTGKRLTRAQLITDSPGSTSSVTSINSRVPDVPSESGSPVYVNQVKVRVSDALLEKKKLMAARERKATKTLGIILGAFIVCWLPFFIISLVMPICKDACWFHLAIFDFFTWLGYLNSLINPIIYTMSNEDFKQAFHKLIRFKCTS

For `COc1ccc(OC)c(CCNCc2cc(C)cc(Cl)c2)c1` [Compound 2-1, N-(3-chloro-5-methylbenzyl)-2-(2,5-dimethoxyphenyl)ethan-1-amine], the pEC50 [1] was 7.38, the Emax [1] was 82% and the pEC50 [2] was < 4.00. For the same molecule, the pEC50 [3] was 8.36, the Emax [3] was 65% and the pEC50 [4] was 8.37. For the same molecule, the Emax [4] was 93.3%, the pEC50 [5] was 8.55 and the Emax [5] was 99.4%.

In the case of `COc1ccc(OC)c(CCNCc2cc(C)cc(F)c2)c1` [Compound 2-2, 2-(2,5-dimethoxyphenyl)-N-(3-fluoro-5-methylbenzyl)ethan-1-amine], the pEC50 [1] was 7.13, the Emax [1] was 88.2% and the pEC50 [2] was < 4.00. The pEC50 [3] was 7.66, the Emax [3] was 60.2% and the body temperature [6] was “did not affect”. For the same molecule, the locomotion [6] was “did not affect”, the pEC50 [7] was 5.71 and the “ex vivo occupancy of 5-HT2A receptors (RO)” value ([7]; across 1, 3, 10 mg/kg IP) was 21-60%. The “brain concentration at 50% 5-HT2A RO” value ([7]; in brain) was 1608 ng/g, the receptor occupancy at 1 mg/kg ([7]; mouse, 1 mg/kg IP, 15 minutes post dosing, read-out: % Receptor Occupancy (RO)) was 21% and the remaining activity at 1 mg/kg ([7]; mouse, 1 mg/kg IP, 15 minutes post dosing, read-out: % of Control Binding) was 79%. The receptor occupancy at 3 mg/kg ([7]; mouse, 3 mg/kg IP, 15 minutes post dosing, read-out: % Receptor Occupancy (RO)) was 37%, the remaining activity at 3 mg/kg ([7]; mouse, 3 mg/kg IP, 15 minutes post dosing, read-out: % of Control Binding) was 63% and the receptor occupancy at 10 mg/kg ([7]; mouse, 10 mg/kg IP, 15 minutes post dosing, read-out: % Receptor Occupancy (RO)) was 60%. The remaining activity at 10 mg/kg ([7]; mouse, 10 mg/kg IP, 15 minutes post dosing, read-out: % of Control Binding) was 40%, the ED50 ([7]; mouse, IP, non-linear regression, read-out: dose at 50% 5-HT2A RO) was 6.14 mg/kg and the “distance travelled during the first 20 minutes of the 2 hour test” value ([8]; 30 mg/kg IP) was “decreased”. The total ambulatory episodes ([8]; 30 mg/kg IP) was “decreased”, the total rearing counts ([8]; 30 mg/kg IP) was “decreased” and the total distance travelled ([8]; 3, 10, 30 mg/kg IP, 2 hour test) was “did not affect”. For the same molecule, the Flat body posture ([8]; 5-HT1A agonism / excess 5-HT agonism, 30 mg/kg IP (highest dose tested), 30 mg/kg) was “induced flat body posture; also recorded: Significant Increase”, the “Forepaw treading (FPT)” value [8, 9] was “No effect” and the “Hindlimb abduction (HLA)” value [8, 9] was “No effect”. The “Penile grooming (PG)” value [8, 10] was “No effect”, the Yawning [8, 10] was “No effect” and the Salivation [8, 11] was “No effect”. The Tremor [8, 11] was “No effect”, the Locomotor activity ([8]; mixed/non-selective, 30 mg/kg IP) was “Significant decrease” and the pEC50 [4] was 8.05. The Emax [4] was 88%, the pEC50 [5] was 8.04 and the Emax [5] was 97.9%.
